What all share (format): in vivo
One test has as its system Spodoptera frugiperda. Description: Critical concentration test/soil insects, Spodoptera frugiperda. To be noted: 120 h, 5 days after infestation, read-out: Kill in %. As for the experimental part: To produce a suitable preparation of active compound, 1 part by weight of the active compound or the active compound mixture is mixed with the stated amounts of solvent and emulsifier, and the concentrate is diluted with water to the desired concentration.
The active compound preparation is mixed intimately with soil. Here, the concentration of the active compound in the preparation is almost irrelevant; only the amount by weight of active compound or active compound mixture per volume unit of soil, which is stated in ppm (mg/l), matters.
Soil is filled into 0.5 l pots and these are allowed to stand at 20° C. Immediately after preparation, 3 pre-germinated maize corns are placed into each pot. After the maize corns have emerged, boring sleeves are placed onto the pots. 9 days after preparation, the maize is populated with the test insects. After a further 5 days, the kill in % is determined. 100% means that all test insects have been killed; 0% means that the number of insects which are still alive is the same as for the untreated control.

For test [1], the system named is caterpillars of the diamondback moth (Plutella xylostella). Description: Plutella test (cabbage leaf dip). As for the experimental part:
To produce a suitable preparation of active compound, 1 part by weight of an active compound or an active compound combination is mixed with the stated amounts of solvent and emulsifier, and the concentrate is diluted with water to the desired concentration.
Cabbage leaves (Brassica oleracea) are treated by being dipped into the preparation of active compound of the desired concentration and are populated with caterpillars of the diamondback moth (Plutella xylostella) while the leaves are still moist.
After the desired period of time, the kill in % is determined 100% means that all caterpillars have been killed; 0% means that none of the caterpillars have been killed.

In the next test the test system is Puccinia recondita. Description: Puccinia test (wheat)/protective. The following applies: 62.5 g/ha, 10 days after inoculation. As for the experimental part: To produce a suitable preparation of active compound, 1 part by weight of active compound or active compound combination is mixed with the stated amounts of solvent and emulsifier, and the concentrate is diluted with water to the desired concentration, or a commercial formulation of active compound or active compound combination is diluted with water to the desired concentration.
To test for protective activity, young plants are sprayed with the active compound preparation at the stated application rate. After the spray coating has dried on, the plants are sprayed with a conidia suspension of Puccinia recondita. The plants remain in an incubation cabin at 20° C. and 100% relative atmospheric humidity for 48 hours.
The plants are then placed in a greenhouse at a temperature of approximately 20° C. and a relative atmospheric humidity of 80% to promote the development of rust pustules.
Evaluation is carried out 10 days after the inoculation. 0% means an efficacy which corresponds to that of the control, whereas an efficacy of 100% means that no infection is observed.

A further test concerns Fusarium culmorum. Description: Fusarium culmorum test (wheat)/seed treatment. The following applies: 75 g/ha, dry seed dressing, approximately 3 weeks after sowing. As for the experimental part:
The active compounds are applied as a dry dressing. They are prepared by extending the active compound in question with ground minerals to give a finely pulverulent mixture which ensures even distribution on the surface of the seeds.
For the dressing, the infected seeds are shaken with the dressing in a closed glass bottle for 3 minutes.
2×100 seeds of the wheat are sown at a depth of 1 cm into standard soil, and the wheat is cultivated in a greenhouse at a temperature of approximately 18° C. and at a relative atmospheric humidity of approximately 95% in seed containers receiving 15 hours of light per day.
The evaluation of the plants for symptoms is carried out approximately 3 weeks after sowding. 0% means an efficacy which corresponds to that of the control, whereas an efficacy of 100% means that no infection is observed.

Consider `N#C/N=C1/SCCN1Cc1ccc(Cl)nc1` [formula (I)], for which the pest or weed control at 5 ppm in the test on Spodoptera frugiperda (5.00 ppm in soil) was 0%. In addition, the pest or weed control at 10 ppm in the test with Spodoptera frugiperda (10.00 ppm in soil) was found to be 50%. Besides, the pest or weed control at 20 ppm in the test with Spodoptera frugiperda (20.00 ppm in soil) worked out at 100%. The Kill in % in test [1] (concentration 0.0008 %) is given as 0%; in test [1] (concentration 0.004 %), 60%. The Efficacy in % in the test on Puccinia recondita and in the test with Fusarium culmorum was 0% each time.

Source of the values: patent US7179814B2, “Agents for controlling plant pests” (priority 1998, dated 2007).
